Converted amounts (≈) assume the structure as drawn.
Columns and labels:
Type in all cases: functional, cell-based
P388 = test: Cytotoxicity against mouse P388 cells
[1] = Cytotoxicity against mouse SCHABEL cells
A549 = test: Cytotoxicity against human A549 cells
HT-29 = test: Cytotoxicity against human HT29 cells
SK-MEL-28 = test: Cytotoxicity against human SK-MEL-28 cells

With `C=C1C(=O)O[C@@H]2/C=C(\CO)CC/C=C(\C)C[C@H](OC(=O)/C(C)=C\COC(C)=O)[C@@H]12` the IC50 (P388) was 2.5 µg/mL, the IC50 [1] was 2.5 µg/mL (≈ 6.18 µM) and the IC50 (A549) was 5 µg/mL. It also gave an IC50 (HT-29) of 5 µg/mL and an IC50 (SK-MEL-28) of 5 µg/mL (≈ 12.4 µM).
`C=C1C(=O)O[C@@H]2/C=C(\CO)CC/C=C(\C)C[C@H](OC(=O)C(=C)[C@H](O)CO)[C@@H]12` [CNICIN] showed an IC50 (P388) of 6.6 µM, an IC50 (A549) of 13.2 µM and an IC50 (HT-29) of 13.2 µM.
Compound `C=C1C(=O)O[C@H]2[C@H]1[C@@H](OC(=O)C(=C)[C@@H](O)CO)C[C@]1(C)[C@@H]2[C@@H](C=O)CC[C@H]1O` [MALACITANOLIDE] has an IC50 (P388) of 0.12 µg/mL, an IC50 [1] of 0.12 µg/mL (≈ 0.304 µM) and an IC50 (A549) of 0.12 µg/mL. It also gave an IC50 (HT-29) of 0.12 µg/mL and an IC50 (SK-MEL-28) of 0.12 µg/mL (≈ 0.304 µM).

Source: ChEMBL document CHEMBL1158323, “Biomimetic cyclization of cnicin to malacitanolide, a cytotoxic eudesmanolide from Centaurea malacitana” (J Nat Prod, 1997)
